Measured values reported in article PMC10601554 (Protein Science : A Publication of the Protein Society, 2023).
Blank lines part the entries; values can stand above or below the molecule they belong to.

Key:
[1] = target: T1, RBP-NN-His/RBP-TruncIIN-Strep co-expressed heterodimer (Thermotoga maritima, UniProt Q9X053); assay: differential scanning calorimetry; type: binding; conditions: 10 mM sodium phosphate, 50 mM NaCl, pH 7.8; 50 μM protein, 0.5 mM ribose; irreversible unfolding; possible residual ribose carried over
T1 construct: gene TM_0958; halves co-expressed in E. coli BL21(DE3); N-terminal His6 tag on RBP-N (border also printed as 153), N-terminal Strep-tag on RBP-TruncII
T1 sequence (Q9X053 entry or part of it, one chain of several): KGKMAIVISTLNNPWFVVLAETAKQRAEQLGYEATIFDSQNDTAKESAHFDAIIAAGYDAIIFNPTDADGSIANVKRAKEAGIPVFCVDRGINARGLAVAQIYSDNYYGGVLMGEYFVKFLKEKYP

[2] = target: T2, RBP-N/RBP-Trunc mixed heterodimer (Thermotoga maritima, UniProt Q9X053); assay: isothermal titration calorimetry; type: binding; conditions: 10 mM sodium phosphate, 50 mM NaCl, pH 7.8, 20°C; 100 μM protein; 1:1 model
T2 construct: gene TM_0958; separately expressed halves mixed equimolar in vitro; E. coli BL21(DE3); His tag likely; dimer of heterodimers
T2 sequence (Q9X053 entry or part of it, one chain of several): as above

[3] = target: T3, RBP-NN-His/RBP-CN-Strep co-expressed heterodimer (Thermotoga maritima, UniProt Q9X053); assay: differential scanning calorimetry; type: binding; conditions: 10 mM sodium phosphate, 50 mM NaCl, pH 7.8; 50 μM protein, 0.5 mM ribose; irreversible unfolding
T3 construct: gene TM_0958; halves co-expressed in E. coli BL21(DE3); N-terminal His6 tag on RBP-N (border also printed as 153), N-terminal Strep-tag on RBP-C; lacks C-terminal cross-over strands; oligomeric state not determined
T3 sequence (Q9X053 entry or part of it, one chain of several): as above

[4] = target: T2, RBP-N/RBP-Trunc mixed heterodimer; assay: differential scanning calorimetry; type: binding; conditions: 10 mM sodium phosphate, 50 mM NaCl, pH 7.8; 50 μM protein, 0.5 mM ribose; irreversible unfolding
[5] = target: RBP‐N/RBP‐Trunc mixed heterodimer (first generation) (Thermotoga maritima) (UniProt Q9X053); assay: SEC-MALS; single purified proteins, and RBP‐N and RBP‐Trunc purified one by one and mixed in an equimolar ratio; Superdex 75 Increase 10/300 GL, 10 mM sodium phosphate, 50 mM sodium chloride, 0.02% sodium azide, pH 7.8, room temperature, 0.8 mL min^-1
[6] = target: the molecule itself; assay: as above

- dTm [1]: 9.1 °C
- Kd [2]: 6.8 ± 0.7 µM
- dTm [3]: 15.1 °C
- dTm [4]: ~ 14 °C
Molecule: OC1OC[C@@H](O)[C@@H](O)[C@H]1O (stereo partly drawn) [ribose]

- stoichiometry N [5]: 2
Molecule: RBP‐N/RBP‐Trunc mixed heterodimer (first generation) (from UniProt Q9X053 30-153; Q9X053 142-310) (complex)

B1: RBP‐Trunc (truncated T. maritima RBP, residues 142–310, first generation) (domain or fragment, Thermotoga maritima, UniProt Q9X053 142-310, looked up)
chain: MGEYFVKFLKEKYPDAKEIPYAELLGILSAQPTWDRSNGFHSVVDQYPEFKMVAQQSAEFDRDTAYKVTEQILQAHPEIKAIWCGNDAMALGAMKACEAAGRTDIYIFGFDGAEDVINAIKEGKQIVATIMQFPKLMARLAVEWADQYLRGERSFPEIVPVTVELVTRE
notes: also called RPB‐Trunc
- stoichiometry N [6]: 2
